Our source for the IC50 values is patent US7582645B2, “Pyrimidine derivatives for treatment of hyperproliferative disorders” (Bayer Pharmaceuticals Corporation, priority 2003, dated 2009).

The pIC50 is the negative decadic logarithm of the IC50, by convention in mol/L.

pIC50: −log10 of the molar value. Bounds are passed on as bounds.

The first test relates to HCT116 cells. Briefly: HCT116 cytotoxic activity assay (Alamar Blue, 72 h). Format: cell-based. Particulars: Homo sapiens, HCT-116, 72 h compound exposure, greater than 500 nM but less than or equal to 2 μM. How it is done: Representative compounds of this invention were tested for cytotoxicity using the above-described assay procedure with the following results: […]
(Resazurin is reduced to fluorescent resorufin, in cell work by metabolically active cells.)
`COc1ccc(-c2cc(Nc3cccc(Oc4ccnc(C(N)=O)c4)c3)nc(N)n2)cn1` [Example 284, 4-(3-{[2-amino-6-(6-methoxypyridin-3-yl)pyrimidin-4-yl]amino}phenoxy) pyridine-2-carboxamide] had a negative logarithm of the IC50 (pIC50) of 5.70 to 6.30.
`Nc1nc(Nc2ccc(Oc3ccnc(Cl)c3)cc2)cc(-c2cccc([N+](=O)[O-])c2)n1` [Example 115, N4*-{4-[(2-chloropyridin-4-yl)oxy]phenyl}-6-(3-nitrophenyl)pyrimidine-2,4-diamine] had a negative logarithm of the IC50 (pIC50) of 5.70 to 6.30.
In turn, `Nc1nc(Nc2ccc(Oc3c(F)cncc3F)cc2)cc(-c2ccccc2)n1` [Example 5, N^4-{4-[(3,5-difluoropyridin-4-yl)oxy]phenyl}-6-phenylpyrimidine-2,4-diamine] showed a negative logarithm of the IC50 (pIC50) of 5.70 to 6.30.
The same measure, in the same setting: the value for `COc1ccc(-c2cc(Nc3ccc(Oc4ccnc(C(N)=O)c4)cc3)nc(N)n2)cn1` [Example 230, 4-(4-{[2-amino-6-(6-methoxypyridin-3-yl)pyrimidin-4-yl]amino}phenoxy) pyridine-2-carboxamide] was 5.70 to 6.30; that for `NC(=O)c1cc(Oc2ccc(Nc3cc(-c4cccc(C(F)(F)F)c4)nc(N)n3)cc2)ccn1` [Example 258, 4-[4-({2-amino-6-[3-(trifluoromethyl)phenyl]pyrimidin-4-yl}amino)phenoxy]pyridine-2-carboxamide] was 5.70 to 6.30; that for `N#CCc1ccc(-c2cc(Nc3cccc(Oc4ccnc(C(N)=O)c4)c3)nc(N)n2)cc1` [Example 294, 4-[3-({2-amino-6-[4-(cyanomethyl)phenyl]pyrimidin-4-yl}amino)phenoxy]pyridine-2-carboxamide] was 5.70 to 6.30.

The test is the same for the next values; noted with them: Homo sapiens, HCT-116, 72 h compound exposure, greater than 2 μM.
The compound `NC(=O)c1cc(Oc2cccc(Nc3cc(-c4cccc(F)c4)nc(N)n3)c2)ccn1` [Example 285, 4-(3-{[2-amino-6-(3-fluorophenyl)pyrimidin-4-yl]amino}phenoxy) pyridine-2-carboxamide] gave a pIC50 below 5.70.
For `COCCN(CCOC)c1cc(Oc2cccc(Nc3cc(-c4ccccc4)nc(N)n3)c2)ccn1` [Example 126, N4*-[3-({2-[bis(2-methoxyethyl)amino]pyridin-4-yl}oxy)phenyl]-6-phenylpyrimidine-2,4-diamine], the pIC50 was below 5.70.
Still for that read-out and setting: the value for `Cc1ccc(-c2cc(Nc3cccc(Oc4ccnc(C(N)=O)c4)c3)nc(N)n2)cc1` [Example 295, 4-(3-{[2-amino-6-(4-methylphenyl)pyrimidin-4-yl]amino}phenoxy) pyridine-2-carboxamide] was below 5.70; that for `Nc1nc(Nc2ccc(Oc3ccnc(C(F)(F)F)c3)cc2)cc(-c2cccc(OC(F)(F)F)c2)n1` [Example 216, 6-[3-(trifluoromethoxy)phenyl]-N4*- (4-{[2-(trifluoromethyl)pyridin-4-yl]oxy}phenyl)pyrimidine-2,4-diamine] was below 5.70.

Staying with this test, now noted: Homo sapiens, HCT-116, 72 h compound exposure, less than or equal to 500 nM.
Take `Nc1nc(Nc2cccc(Oc3ccnc(N(CCO)CCO)c3)c2)cc(-c2ccccc2)n1` [Example 127, 2,2′-[(4-{3-[(2-amino-6-phenylpyrimidin-4-yl)amino]phenoxy}pyridin-2-yl)imino]diethanol]: the negative-log IC50 (pIC50) is at least 6.30.
On the same count and under the same terms, with `N#Cc1cc(Oc2ccc(Nc3cc(-c4ccccc4)nc(N)n3)cc2)ccn1` [Example 8, 4-{4-[(2-amino-6-phenylpyrimidin-4-yl)amino]phenoxy}pyridine-2-carbonitrile] the figure was at least 6.30; with `COc1cc(-c2cc(Nc3ccc(Oc4ccnc(C(F)(F)F)c4)cc3)nc(N)n2)ccc1N` [Example 153, 6-(4-amino-3-methoxyphenyl)-N4*-(4-{[2-(trifluoromethyl)pyridin-4-yl]oxy}phenyl) pyrimidine-2,4-diamine], at least 6.30.
`Cc1cccc(-c2cc(Nc3cccc(Oc4ccnc(C(N)=O)c4)c3)nc(N)n2)c1` [Example 296, 4-(3-{[2-amino-6-(3-methylphenyl)pyrimidin-4-yl]amino}phenoxy) pyridine-2-carboxamide] gave a pIC50 of at least 6.30.
Take `COc1cccc(-c2cc(Nc3cccc(Oc4ccnc(C(N)=O)c4)c3)nc(N)n2)c1` [Example 292, 4-(3-{[2-amino-6-(3-methoxyphenyl)pyrimidin-4-yl]amino}phenoxy) pyridine-2-carboxamide]: the pIC50 is at least 6.30.
